Assay results reported in patent publication US7173019B2, “Linked cyclitols and their polysulfated derivatives” (The Australian National University, priority 2001, dated 2007).
≈ marks a conversion by molar mass, not a printed value.

Key:
[1] = tested on: rat aorta fragments; assay: In vitro angiogenesis inhibition assay; type: cell-based; conditions: inhibitor 100 μg/ml, control 90
Method: The ability of linked cyclitol compounds to inhibit angiogenesis in vitro was conducted using the assay essentially as described in the present applicant's International Patent Application No. PCT/AU95/00105 (Publication No. WO 95/23968), the entire content of which is incorporated herein by cross reference. The only changes to the procedure described in PCT/AU95/00105 were that the assays were conducted using rat aorta fragments rather than human placental vessel fragments.
All potential inhibitors were tested at 100 μg/ml with PI-88 also being tested at 10 μg/ml. The tabulated data represent means of 4 culture wells for each experiment. Significant inhibition of angiogenesis is indicated with a single asterisk while double asterisks denote highly significant inhibition.
The compounds were also tested at the same purity as in Example 15 save that the second entries for 4b and 4j relate to data obtained with higher purity compounds than the compounds used for the first data entries of each.

[2] = molecular target: T1, human platelet heparanase (Homo sapiens, UniProt Q9Y251); assay: Heparanase inhibition, 3H-radiolabelled HS cleavage assay; type: biochemical; conditions: for Relative inhibition (%): based on a comparison with heparin with 100% inhibition at 30 μg/ml; for EC50: heparanase inhibition
T1 construct: 10 ng of purified human platelet heparanase; from tissue; host or cells: human platelets
T1 sequence (Q9Y251 158-543 limits assumed): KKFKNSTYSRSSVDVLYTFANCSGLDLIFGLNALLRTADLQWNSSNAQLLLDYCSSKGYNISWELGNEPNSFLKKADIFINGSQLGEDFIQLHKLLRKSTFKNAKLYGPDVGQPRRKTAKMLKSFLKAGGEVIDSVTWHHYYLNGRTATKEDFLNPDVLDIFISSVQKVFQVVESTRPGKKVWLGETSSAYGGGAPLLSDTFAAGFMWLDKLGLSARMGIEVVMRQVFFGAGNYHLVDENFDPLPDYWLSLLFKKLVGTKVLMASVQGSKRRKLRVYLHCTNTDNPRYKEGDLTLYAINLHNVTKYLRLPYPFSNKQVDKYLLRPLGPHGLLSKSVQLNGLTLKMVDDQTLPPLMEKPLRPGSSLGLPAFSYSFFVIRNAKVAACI
T1 sequence (Q9Y251 36-109 limits assumed): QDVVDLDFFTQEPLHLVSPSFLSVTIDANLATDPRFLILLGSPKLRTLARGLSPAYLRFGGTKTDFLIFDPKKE
How it was run: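 Purified human platelet heparanase (10 ng) with ^3H-labelled porcine mucosal HS […] in 50 mM sodium acetate pH 5.0 plus BSA, 30 min; stopped by freezing. Products separated from substrate on histidine-rich glycoprotein–sepharose minicolumns; inhibition expressed relative to heparin at 30 μg/ml taken as 100%.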

[3] = molecular target: bFGF (Homo sapiens, UniProt P09038); assay: Biacore biosensor: inhibition of bFGF binding to immobilised heparin and heparan sulfate; conditions: inhibitor 0.034 μM, bFGF 0.034 μM; for Inhibition of binding of bFGF (HS): immobilised heparan sulfate; for Inhibition of binding of bFGF (Hep): immobilised heparin
How it was run: (§1)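 Biotinylated heparin (1 μg/ml) or heparan sulfate was captured on neutravidin-coupled CM5 biosensor chips. Test compound and growth factor were preincubated 2 to 5 min, then growth-factor binding to the immobilised glycosaminoglycan was monitored for about 5 min; values are IC50 (μM) or % inhibition of binding.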

[4] = molecular target: T2, human leukocyte Cathepsin G (Homo sapiens, UniProt P08311); assay: Cathepsin G inhibition, fluorogenic substrate, 96 well assay; type: biochemical; conditions: human leukocyte cathepsin G 100 ng, 37° C., 60 min, pH 6.6
T2 construct: human leukocyte Cathepsin G (100 ng protein); from tissue; host or cells: human leukocytes
T2 sequence (P08311 21-244): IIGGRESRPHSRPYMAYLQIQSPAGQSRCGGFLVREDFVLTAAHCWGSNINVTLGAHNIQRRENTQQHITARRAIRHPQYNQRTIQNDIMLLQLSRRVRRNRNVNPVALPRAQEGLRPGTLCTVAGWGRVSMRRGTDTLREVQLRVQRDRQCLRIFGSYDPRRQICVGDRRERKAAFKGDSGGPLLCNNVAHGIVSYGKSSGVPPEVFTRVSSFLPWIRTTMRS
How it was run: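 Inhibitor mixed with fluorogenic substrate MeOSuc-ala-ala-pro-phe-AMAC and human leukocyte Cathepsin G (100 ng) in 50 mM NaOAc pH 6.6, 50 mM NaCl, 0.1% Brij 35; 60 min at 37° C. Stopped with 250 mM acetic acid; fluorescence ex 360/em 460 nm. Value is concentration giving 50% inhibition.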

[5] = molecular target: T3, IL-8 (Homo sapiens, UniProt P10145); assay: Biacore biosensor: inhibition of IL-8 binding to immobilised heparin and heparan sulfate; conditions: inhibitor 1.0 μM, IL-8 0.068 μM; for Inhibition of binding of IL-8 (HS): immobilised heparan sulfate; for Inhibition of binding of IL-8 (Hep): immobilised heparin
T3 sequence (P10145 21-99): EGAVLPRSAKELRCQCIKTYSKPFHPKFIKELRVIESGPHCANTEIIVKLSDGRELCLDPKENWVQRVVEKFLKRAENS
How it was run: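 Biacore 2000 with neutravidin-coupled CM5 chips capturing biotinylated heparin (1 μg/ml) or heparan sulfate. Compound and IL-8 preincubated 2 to 5 minutes before injection; binding to the immobilised glycosaminoglycan monitored for about 5 minutes.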

[6] = molecular target: aFGF (Homo sapiens, UniProt P05230); assay: Biacore biosensor: inhibition of aFGF binding to immobilised heparin and heparan sulfate; conditions: inhibitor 0.034 μM, aFGF 0.025 μM; for Inhibition of binding of aFGF (HS): immobilised heparan sulfate; for Inhibition of binding of aFGF (Hep): immobilised heparin
How it was run: as §1

[7] = molecular target: T4, VEGF (Homo sapiens, UniProt P15692); assay: Biacore biosensor: inhibition of VEGF binding to immobilised heparin and heparan sulfate; conditions: inhibitor 0.034 μM, VEGF 0.025 μM; for Inhibition of binding of VEGF (HS): immobilised heparan sulfate; for Inhibition of binding of VEGF (Hep): immobilised heparin
T4 sequence (P15692 27-191 isoform P15692-4): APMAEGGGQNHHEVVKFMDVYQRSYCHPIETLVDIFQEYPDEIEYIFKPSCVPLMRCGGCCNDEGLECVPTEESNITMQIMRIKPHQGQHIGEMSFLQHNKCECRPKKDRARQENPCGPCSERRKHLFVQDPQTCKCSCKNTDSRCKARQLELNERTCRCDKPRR
How it was run: as §1

[8] = means of 4 culture wells per experiment, * significant, ** highly significant inhibition

aFGF, sequence (P05230 whole entry, species assumed): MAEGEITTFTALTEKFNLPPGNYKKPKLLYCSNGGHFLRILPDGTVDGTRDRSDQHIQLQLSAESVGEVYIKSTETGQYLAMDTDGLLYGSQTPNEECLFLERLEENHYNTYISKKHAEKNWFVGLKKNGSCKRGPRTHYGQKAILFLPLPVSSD
bFGF, sequence (P09038 134-288 limits assumed, species assumed): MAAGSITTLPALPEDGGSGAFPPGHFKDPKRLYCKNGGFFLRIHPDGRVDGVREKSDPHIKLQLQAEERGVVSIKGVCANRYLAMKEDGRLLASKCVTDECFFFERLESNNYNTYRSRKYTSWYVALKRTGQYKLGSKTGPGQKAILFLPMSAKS

SMILES	% Growth [1, 8]	Relative inhibition (%) [2] [%]	EC50 [2] [µg/mL]	Inhibition of binding of bFGF (HS) [3]	Inhibition of binding of bFGF (Hep) [3]	Amount for 50% inhibition [4] [µg/mL]	Inhibition of binding of IL-8 (HS) [5]	Inhibition of binding of IL-8 (Hep) [5]	Inhibition of binding of aFGF (HS) [6]	Inhibition of binding of aFGF (Hep) [6]	Inhibition of binding of VEGF (HS) [7]	Inhibition of binding of VEGF (Hep) [7]	% Growth ([1]; second entry, higher purity compound, * significant inhibition)
O=S(=O)(O)OC(CN([C@H]1[C@H](OS(=O)(=O)O)[C@H](OS(=O)(=O)O)[C@@H](OS(=O)(=O)O)[C@@H](OS(=O)(=O)O)[C@@H]1OS(=O)(=O)O)[C@H]1[C@H](OS(=O)(=O)O)[C@H](OS(=O)(=O)O)[C@@H](OS(=O)(=O)O)[C@@H](OS(=O)(=O)O)[C@@H]1OS(=O)(=O)O)CN([C@H]1[C@H](OS(=O)(=O)O)[C@H](OS(=O)(=O)O)[C@@H](OS(=O)(=O)O)[C@@H](OS(=O)(=O)O)[C@@H]1OS(=O)(=O)O)[C@H]1[C@H](OS(=O)(=O)O)[C@H](OS(=O)(=O)O)[C@@H](OS(=O)(=O)O)[C@@H](OS(=O)(=O)O)[C@@H]1OS(=O)(=O)O [Compound 5l]	80%	85	12 (≈ 4.96 µM)	43% (HS)	33% (Hep)	0.53	42% (HS)	52% (Hep)	54% (HS)	67% (Hep)	11% (HS)	13% (Hep)	–
O=S(=O)(O)OC1C=CC(N(CCCCCCN(C2C=CC(OS(=O)(=O)O)C(OS(=O)(=O)O)C2OS(=O)(=O)O)C2C=CC(OS(=O)(=O)O)C(OS(=O)(=O)O)C2OS(=O)(=O)O)C2C=CC(OS(=O)(=O)O)C(OS(=O)(=O)O)C2OS(=O)(=O)O)C(OS(=O)(=O)O)C1OS(=O)(=O)O (stereo not shown) [Compound 4b]	70%	45	40 (≈ 25.2 µM)	48% (HS)	52% (Hep)	0.22	48% (HS)	55% (Hep)	47% (HS)	44% (Hep)	32% (HS)	45% (Hep)	65* %
O=S(=O)(O)OC1C=CC(N(Cc2ccc(CN(C3C=CC(OS(=O)(=O)O)C(OS(=O)(=O)O)C3OS(=O)(=O)O)C3C=CC(OS(=O)(=O)O)C(OS(=O)(=O)O)C3OS(=O)(=O)O)cc2)C2C=CC(OS(=O)(=O)O)C(OS(=O)(=O)O)C2OS(=O)(=O)O)C(OS(=O)(=O)O)C1OS(=O)(=O)O (stereo not shown) [Compound 4e]	55* %	70	9 (≈ 5.59 µM)	61% (HS)	49% (Hep)	0.30	65% (HS)	62% (Hep)	63% (HS)	66% (Hep)	51% (HS)	63% (Hep)	–
